Key:
MNK2 = MNK2 (Homo sapiens, UniProt Q9HBH9); assay: MNK2 enzymatic assay; assay type: biochemical
MNK1 = MNK1 (Homo sapiens, UniProt Q9BUB5); assay: MNK1 enzymatic assay; assay type: biochemical
[1] = system: eIF4e phosphorylation in Hela cell line; assay: eIF4e phosphorylation inhibition in Hela cell line; assay type: cell-based; conditions: Homo sapiens, cellular

MNK1, sequence (Q9BUB5 whole entry): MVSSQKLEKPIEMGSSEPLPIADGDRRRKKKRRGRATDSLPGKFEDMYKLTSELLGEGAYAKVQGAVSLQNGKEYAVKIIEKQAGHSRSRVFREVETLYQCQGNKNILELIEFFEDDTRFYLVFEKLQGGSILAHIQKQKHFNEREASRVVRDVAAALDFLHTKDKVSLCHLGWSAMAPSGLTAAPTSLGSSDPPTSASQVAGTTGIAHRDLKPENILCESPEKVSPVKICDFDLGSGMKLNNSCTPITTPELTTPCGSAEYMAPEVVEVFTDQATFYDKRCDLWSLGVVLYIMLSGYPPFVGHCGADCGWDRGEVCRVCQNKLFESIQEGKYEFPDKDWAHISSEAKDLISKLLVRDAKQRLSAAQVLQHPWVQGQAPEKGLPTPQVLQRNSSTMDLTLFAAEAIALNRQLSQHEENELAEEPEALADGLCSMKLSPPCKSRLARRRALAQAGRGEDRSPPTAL
MNK2, sequence (Q9HBH9 whole entry): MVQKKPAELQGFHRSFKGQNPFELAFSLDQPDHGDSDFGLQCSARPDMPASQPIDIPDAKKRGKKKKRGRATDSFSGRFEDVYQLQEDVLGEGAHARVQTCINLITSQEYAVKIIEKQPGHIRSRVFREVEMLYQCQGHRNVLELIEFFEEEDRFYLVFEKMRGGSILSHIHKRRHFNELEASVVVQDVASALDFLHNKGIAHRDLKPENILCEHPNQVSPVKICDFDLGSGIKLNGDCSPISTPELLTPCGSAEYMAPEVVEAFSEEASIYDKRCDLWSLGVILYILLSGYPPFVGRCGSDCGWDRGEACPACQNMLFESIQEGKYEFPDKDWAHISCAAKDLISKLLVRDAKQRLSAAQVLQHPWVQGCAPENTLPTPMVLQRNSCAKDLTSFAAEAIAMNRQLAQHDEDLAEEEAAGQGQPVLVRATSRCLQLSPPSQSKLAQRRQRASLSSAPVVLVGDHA

| IC50 (MNK2) | IC50 (MNK1) | IC50 [1] | Compound |
| --- | --- | --- | --- |
| < 0.5 µM | < 0.5 µM | < 5 µM | Cc1ccccc1C#Cc1cnc2ccc(-c3ccc(C(=O)N4CCN(C)CC4)cc3)nn12 [Example 001, (4-methylpiperazin-1-yl)(4-(3-(o-tolylethynyl)imidazo[1,2-b]pyridazin-6-yl)phenyl)methanone] |
| < 0.5 µM | < 0.5 µM | < 5 µM | O=C(c1ccc(-c2ccc3ncc(C#Cc4c[nH]c5ncccc45)n3n2)cc1)N1CCOCC1 [Example 024, (4-(3-((1H-pyrrolo[2,3-b]pyridin-3-yl)ethynyl)imidazo[1,2-b]pyridazin-6-yl)phenyl) (morpholino)methanone] |
| < 0.5 µM | < 0.5 µM | < 5 µM | O=C(c1ccc(-c2ccc3ncc(C#Cc4ccnc(Nc5ncccn5)c4)n3n2)cc1)N1CCOCC1 [Example 056, morpholino(4-(3-((2-(pyrimidin-2-ylamino)pyridin-4-yl)ethynyl)imidazo[1,2-b]pyridazin-6 yl)phenyl)methanone] |
| < 0.5 µM | < 0.5 µM | < 5 µM | O=C(c1ccc(-c2ccc3ncc(C#Cc4ccc5[nH]cnc5c4)n3n2)cc1)N1CCOCC1 [Example 027, (4-(3-((1H-benzo[d]imidazol-5-yl)ethynyl)imidazo[1,2-b]pyridazin-6-yl)phenyl)(morpholino)methanone] |
| < 0.5 µM | < 0.5 µM | < 5 µM | CC(=O)Nc1cc(C#Cc2cnc3ccc(-c4ccc(C(=O)N5CCNCC5)cc4)cn23)ccn1 [Example 101, N-(4-((6-(4-(piperazine-1-carbonyl)phenyl)imidazo[1,2-a]pyridin-3-yl)ethynyl)pyridin-2-yl)acetamide] |
| < 0.5 µM | < 0.5 µM | < 5 µM | Cc1ccncc1C#Cc1cnc2ccc(-c3ccc(C(=O)N4CCOCC4)cc3)nn12 [Example 022] |
| < 0.5 µM | < 0.5 µM | < 5 µM | CN1CCN(C(=O)c2ccc(-c3ccc4ncc(C#Cc5ccncc5)n4n3)cc2)CC1 [Example 005, (4-methylpiperazin-1-yl) (4-(3-(pyridin-4-ylethynyl)imidazo[1,2-b]pyridazin-6-yl)phenyl)methanone] |
| < 0.5 µM | < 0.5 µM | < 5 µM | O=C(c1ccc(-c2ccc3ncc(C#Cc4ccncc4)n3n2)cc1)N1CCOCC1 [Example 032] |
| < 0.5 µM | < 0.5 µM | < 5 µM | O=C(c1ccc(-c2ccc3ncc(C#Cc4cc(NCc5ccccc5)nc5[nH]ccc45)n3n2)cc1)N1CCOCC1 [Example 073, (4-(3-((6-(benzylamino)-1H-pyrrolo[2,3-b]pyridin-4-yl)ethynyl)imidazo[1,2-b]pyridazin-6-yl)phenyl)(morpholino)methanone] |
| < 0.5 µM | < 0.5 µM | < 5 µM | COc1cc(C#Cc2cnc3ccc(-c4ccc(C(=O)N5CCOCC5)cc4)nn23)ccn1 [Example 019, (4-(3-((2-methoxypyridin-4-yl)ethynyl)imidazo[1,2-b]pyridazin-6-yl)phenyl) (morpholino)methanone] |
| < 0.5 µM | < 0.5 µM | < 5 µM | Nc1cc(C#Cc2cnc3ccc(-c4ccc(C(=O)N5CCNCC5)cc4)cn23)ccn1 [Example 108, (4-(3-((2-aminopyridin-4-yl)ethynyl)imidazo[1,2-a]pyridin-6-yl)phenyl)(piperazin-1-yl)methanone] |
| < 0.5 µM | < 0.5 µM | < 5 µM | O=C(c1ccc(-c2ccc3ncc(C#Cc4ccnc(Nc5cccnc5)c4)n3c2)cc1)N1CCNCC1 [Example 105, piperazin-1-yl(4-(3-((2-(pyridin-3-ylamino)pyridin-4-yl)ethynyl)imidazo[1,2-a]pyridin-6-yl)phenyl)methanone] |
| < 0.5 µM | < 0.5 µM | < 5 µM | Nc1cc(C#Cc2cnc3ccc(-c4ccc(C(=O)N5CCNCC5)cc4)nn23)ccn1 [Example 046, (4-(3-((2-aminopyridin-4-yl)ethynyl)imidazo[1,2-b]pyridazin-6-yl)phenyl)(piperazin-1-yl)methanone] |
| < 0.5 µM | < 0.5 µM | < 5 µM | O=C(c1ccc(-c2ccc3ncc(C#Cc4ccnc(Nc5ccccc5C(F)(F)F)c4)n3n2)cc1)N1CCOCC1 [Example 055, morpholino(4-(3-((2-((2-(trifluoromethyl)phenyl)amino)pyridin-4-yl)ethynyl)imidazo[1,2-b]pyridazin-6-yl)phenyl)methanone] |
| < 0.5 µM | < 0.5 µM | < 5 µM | O=C(c1ccc(-c2ccc3ncc(C#Cc4ccncc4)n3c2)cc1)N1CCOCC1 [Example 094] |
| < 0.5 µM | < 0.5 µM | < 5 µM | CN1CCN(C(=O)c2ccc(-c3cn4c(C#Cc5ccccc5)cnc4cn3)cc2)CC1 [Example 089, (4-methylpiperazin-1-yl) (4-(3-(phenylethynyl)imidazo[1,2-a]pyrazin-6-yl)phenyl)methanone] |

| IC50 (MNK2) | IC50 (MNK1) | IC50 [1] | Compound |
| --- | --- | --- | --- |
| < 0.5 µM | < 0.5 µM | < 5 µM | O=C(c1ccc(-c2ccc3ncc(C#Cc4ccnc(Nc5ccncn5)c4)n3n2)cc1)N1CCOCC1 [Example 054, morpholino(4-(3-((2-(pyrimidin-4-ylamino)pyridin-4-yl)ethynyl)imidazo[1,2-b]pyridazin-6-yl)phenyl)methanone] |
| < 0.5 µM | < 0.5 µM | < 5 µM | O=C(c1ccc(-c2ccc3ncc(C#Cc4ccnc(Nc5cccnc5)c4)n3n2)cc1)N1CCOCC1 [Example 049, morpholino(4-(3-((2-(pyridin-3-ylamino)pyridin-4-yl)ethynyl)imidazo[1,2-b]pyridazin-6 yl)phenyl)methanone] |
| < 0.5 µM | < 0.5 µM | < 5 µM | Nc1cc(C#Cc2cnc3ccc(-c4ccc(C(=O)N5CCOCC5)cc4)nn23)ccn1 [Example 034, (4-(3-((2-aminopyridin-4-yl)ethynyl)imidazo[1,2-b]pyridazin-6-yl)phenyl) (morpholino)methanone] |
| < 0.5 µM | < 0.5 µM | < 5 µM | O=C(c1ccc(-c2ccc3ncc(C#Cc4cccnc4)n3n2)cc1)N1CCOCC1 [Example 010, morpholino(4-(3-(pyridin-3-ylethynyl)imidazo[1,2-b]pyridazin-6-yl)phenyl)methanone] |
| < 0.5 µM | < 0.5 µM | < 5 µM | O=C(c1ccc(-c2ccc3ncc(C#Cc4ccnc(Nc5ccccn5)c4)n3n2)cc1)N1CCOCC1 [Example 048, morpholino(4-(3-((2-(pyridin-2-ylamino)pyridin-4-yl)ethynyl)imidazo[1,2-b]pyridazin-6-yl)phenyl)methanone] |
| < 0.5 µM | < 0.5 µM | < 5 µM | O=C(c1ccc(-c2ccc3ncc(C#Cc4cnc5cc[nH]c5c4)n3n2)cc1)N1CCOCC1 [Example 020, (4-(3-((1H-pyrrolo[3,2-b]pyridin-6-yl)ethynyl)imidazo[1,2-b]pyridazin-6-yl)phenyl) (morpholino)methanone] |
| < 0.5 µM | < 0.5 µM | < 5 µM | CC(=O)Nc1cccc(C#Cc2cnc3ccc(-c4ccc(C(=O)N5CCN(C)CC5)cc4)nn23)c1 [Example 008, N-(3-((6-(4-(4-methylpiperazine-1-carbonyl)phenyl)imidazo[1,2-b]pyridazin-3-yl)ethynyl)phenyl)acetamide] |
| < 0.5 µM | < 0.5 µM | < 5 µM | Cn1ccc2c(C#Cc3cnc4ccc(-c5ccc(C(=O)N6CCOCC6)cc5)nn34)ccnc21 [Example 035, (4-(3-((1-methyl-1H-pyrrolo[2,3-b]pyridin-4-yl)ethynyl)imidazo[1,2-b]pyridazin-6-yl)phenyl)(morpholino) methanone] |
| < 0.5 µM | < 0.5 µM | < 5 µM | NC(=O)c1ccc(-c2ccc3ncc(C#Cc4ccnc(N)c4)n3n2)cc1 [Example 074, 4-(3-((2-aminopyridin-4-yl)ethynyl)imidazo[1,2-b]pyridazin-6-yl)benzamide] |
| < 0.5 µM | < 0.5 µM | < 5 µM | O=C(c1ccc(-c2ccc3ncc(C#Cc4ccnc5[nH]ncc45)n3c2)cc1)N1CCOCC1 [Example 097, (4-(3-((1H-pyrazolo[3,4-b]pyridin-4-yl)ethynyl)imidazo[1,2-a]pyridin-6-yl)phenyl)(morpholino)methanone] |
| < 0.5 µM | < 0.5 µM | < 5 µM | Nc1cc(C#Cc2cnc3ccc(-c4ccc(C(=O)N5CCNCC5)cc4)cn23)c2cc[nH]c2n1 [Example 111, (4-(3-((6-amino-1H-pyrrolo[2,3-b]pyridin-4-yl)ethynyl)imidazo[1,2-a]pyridin-6-yl)phenyl)(piperazin-1-yl)methanone] |
| < 0.5 µM | < 0.5 µM | < 5 µM | O=C(Nc1cc(C#Cc2cnc3ccc(-c4ccc(C(=O)N5CCNCC5)cc4)cn23)ccn1)c1ccccc1 [Example 103, (N-(4-((6-(4-(piperazine-1-carbonyl)phenyl)imidazo[1,2-a]pyridin-3-yl)ethynyl)pyridin-2-yl)benzamide)] |
| < 0.5 µM | < 0.5 µM | < 5 µM | O=C(c1ccc(-c2ccc3ncc(C#Cc4ccc(O)nc4)n3n2)cc1)N1CCOCC1 [Example 040, (4-(3-((6-hydroxypyridin-3-yl)ethynyl)imidazo[1,2-b]pyridazin-6-yl)phenyl) (morpholino)methanone] |
| < 0.5 µM | < 0.5 µM | < 5 µM | Cc1c(N)cccc1Nc1cc(C#Cc2cnc3ccc(-c4ccc(C(=O)N5CCNCC5)cc4)cn23)ccn1 [Example 102, (4-(3-((2-(3-amino-2-methylphenylamino)pyridin-4-yl)ethynyl)imidazo[1,2-a]pyridin-6-yl)phenyl) (piperazin-1-yl)methanone] |
| < 0.5 µM | < 0.5 µM | < 5 µM | Cc1ccccc1C(=O)Nc1cc(C#Cc2cnc3ccc(-c4ccc(C(=O)N5CCOCC5)cc4)nn23)ccn1 [Example 063, 2-methyl-N-(4-((6-(4-(morpholine-4-carbonyl)phenyl)imidazo[1,2-b]pyridazin-3-yl)ethynyl)pyridin-2-yl)benzamide] |
